Assays:
[1] = test system: Plodia interpunctella neonatal larvae; test: Bioassay chamber choice test of larval attraction, neonatal larvae; assay type: in vivo; details: serially diluted, bioassayed over the range of 16 pg to 500 pg on 3MM pad; FIGS. 7 and 8
Excerpt: (§1) To isolate the attractant, the inventors bioassayed multiple materials that potentially comprised effective attractants. The bioassay chamber 10 was comprised of a Lincoln Wear-Ever (Fort Wayne, Ind.) baking pan (No. 9002) having the dimensions of 65 cm long, 45 cm wide and 2.5 cm high. A similarly sized Carb-x plastic top 12 (Rubbermaid Commercial Products Inc., Winchester, Va.) was modified for this application. (Note that FIG. 1 is a (top) plan view so that only the Carb-x plastic top 12 of the bioassay chamber is shown.)
The rows of three holes were ˜8 cm from the outer edge at the ends and ˜10 cm from the outer edge on the two sides, which spaced the three holes ˜12.5 cm apart, center to center. […]
Plodia larvae used in this study were reared on a standardized Plodia diet (Silhacek and Miller, 1972) at 30° C., 70% r.h. and a 16L:8D photoperiod as described previously (Silhacek et al, 2003) using eggs collected over a 1 h interval during the 2 h period preceding the scotophase. […] The samples were then removed, mixed with Plodia diet and the larvae counted after two days of additional growth.
In the first set of tests, the relative attractiveness of the three major, commercially available kernel tissue fractions of wheat were assessed. […]

[2] = test system: Plodia interpunctella larvae (0.6 mg penultimate instar to mid-last instar); test: Bioassay chamber choice test of larval attraction, older larvae (early penultimate, newly molted last and mid-last instar); assay type: in vivo
Excerpt: as §1
The rows of three holes were ˜8 cm from the outer edge at the ends and ˜10 cm from the outer edge on the two sides, which spaced the three holes ˜12.5 cm apart, center to center. A 3.0 cm diameter hole 16 was drilled in the center of the top 12 to accept a bulkhead fitting 18 (# 16422, United States Plastic Corp., Lima, Ohio) complete with a right angle connection and a serrated vacuum hose 20. During the bioassay process, air was drawn into the chamber 10 through the six air inlet holes 14 and removed from the chamber 10 through the fitting 18 and vacuum hose 20 in the direction of the arrow 22.
Before each bioassay, the chambers 10 were washed with a dilute solution of Micro-90 detergent (International Products Corp, Burlington, N.J.), rinsed 3 times with tap water, 1 time with distilled water, 1 time with MeOH and air dried. Test samples were placed in flat polypropylene weigh boats. An individual sample was positioned at each end of the chamber 10 under the middle air inlets.
The six air inlet holes 14 were fitted with syringe ports (Part # MTL230-6, Value Plastics, Inc., Fort Collins, Colo.) and six 10 cc syringes 24 filled with activated charcoal were affixed. Low-density foam weather strip (6.3 mm thick×12.7 mm wide, not shown in FIG. 1) was attached along the four edges of the top 12 to form an airtight seal when placed on the bottom pan and tightened together with four Sparco Binder Clips, # 87010 (2″ wide, 1″ capacity) 26. A vacuum means (not shown) was attached to the vacuum hose 20 was adjusted to give an exit flow of ˜53 cc/min or one chamber volume (˜2.41) exchange every 45 min during the bioassay.
In addition to neonates, three other age groups of larvae were selected from the standardized cultures for bioassay to determine if they were attracted to the wheat grain and its components. These groups included newly molted penultimate instar (0.6±0.1 mg), newly molted last instar (3.2±0.2 mg) and mid-last instar (7.8±0.8 mg) (see Silhacek and Miller, 1972). In these assays, 10 larvae of the specified age, stage and weight range were transferred to the 16 mm sample cup at the beginning of the scotophase and immediately placed at the release point in the equilibrated bioassay chamber. The cover was secured to the chamber bottom and the larvae were given three hours to select the sample of choice and then the larvae on each sample were counted.
In the first set of tests, the relative attractiveness of the three major, commercially available kernel tissue fractions of wheat were assessed. The tissues were crude bran (Flint River Mills, Bainbridge, Ga.), Kretschmer's toasted wheat germ (Quaker Oats Co., Chicago, Ill.) and endosperm (organically grown, unbleached, unenriched all-purpose flour, Wards Super Market, Gainesville, Fla.).
The attractiveness of whole kernel wheat volatiles was examined by suspending a packet of whole wheat in the air stream entering the bioassay chamber over a sample of NASE. […]

| SMILES | attractancy to neonates [1] | attraction of older larvae at 31 pg ([2]; 31 pg on 3MM scintillation pad, three older age groups) | attraction of older larvae at 250-500 pg ([2]; 250-500 pg, some larvae captured in non-attractive NASE sample) | attraction of all larval stages when bioassayed ([2]; all larval stages of Plodia) | amount range of peak attraction of older larvae ([2]; three older age groups, amount on 3MM pad) [pg] | larval attraction by stage of development ([2]; through the middle (7.0-8.5 mg) of the final larval instar) |
| --- | --- | --- | --- | --- | --- | --- |
| CCCCCC=O [Hexanal, reference compound] | not attractive | – | – | – | – | – |
| CCCCCc1ccco1 [2-pentyl furan] | attractive at all levels tested between 32 and 500 pg | Moderate but not significant attraction | Strong attraction | attracted to picogram quantities | 62.5 to 125 | strong |
